Laboratory results published in US20220087983A1, “ACTIVATING PYRUVATE KINASE R” (FORMA Therapeutics, Inc., priority 2020, published 2022).
“And” between values parts separate entries of the source, which are not always exact repeats. Equal values may be shown once. “Also recorded” adds a separate entry of the source.

Assays:
Log D7.4 = assay type: physicochemical; details: pH 7.4
PKR(wt) = PKR(wt) (Homo sapiens, UniProt P30613); assay: Luminescence Assay (Kinase Glo Plus) of PKR activation; assay type: biochemical; details: wild type; Luminescence Assay of Example 2
Chain of PKR(wt) (P30613 whole entry): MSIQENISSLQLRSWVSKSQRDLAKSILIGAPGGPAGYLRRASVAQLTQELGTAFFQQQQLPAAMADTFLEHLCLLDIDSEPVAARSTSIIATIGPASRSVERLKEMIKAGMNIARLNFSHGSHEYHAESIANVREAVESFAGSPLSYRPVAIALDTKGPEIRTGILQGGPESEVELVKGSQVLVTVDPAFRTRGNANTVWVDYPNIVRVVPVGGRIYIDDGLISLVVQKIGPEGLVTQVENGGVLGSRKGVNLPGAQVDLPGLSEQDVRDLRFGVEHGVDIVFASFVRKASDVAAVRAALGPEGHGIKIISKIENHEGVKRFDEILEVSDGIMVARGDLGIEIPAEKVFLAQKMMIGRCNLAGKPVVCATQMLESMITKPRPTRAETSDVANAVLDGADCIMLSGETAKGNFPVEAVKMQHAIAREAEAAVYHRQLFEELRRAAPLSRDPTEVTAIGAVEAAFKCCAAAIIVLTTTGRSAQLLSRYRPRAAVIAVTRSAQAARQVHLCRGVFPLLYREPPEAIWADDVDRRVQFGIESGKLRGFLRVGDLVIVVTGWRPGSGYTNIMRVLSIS
Protocol: (§1) PKR Activating Compounds can be identified with the biochemical Luminescence Assay of Example 2. The PKR activating activity of a series of chemical compounds was evaluated using the Luminescence Assay below, including compounds designated Compound 1, and Compound 2, or mixtures thereof.
(§2) For each tested compound, the ability to activate PKR was determined using the following Luminescence Assay. The effect of phosphorylation of adenosine-5′-diphosphate (ADP) by PKR is determined by the Kinase Glo Plus Assay (Promega) in the presence or absence of FBP (D-fructose-1,6-diphosphate; BOC Sciences, CAS: 81028-91-3) as follows. Unless otherwise indicated, all reagents are purchased from Sigma-Aldrich. All reagents are prepared in buffer containing 50 mM Tris-HCl, 100 mM KCl, 5 mM MgCl2, and 0.01% Triton X100, 0.03% BSA, and 1 mM DTT. Enzyme and PEP (phosphoenolpyruvate) are added at 2× to all wells of an assay-ready plate containing serial dilutions of test compounds or DMSO vehicle. Final enzyme concentrations for PKR(wt), PKR(R510Q), and PKR(G332S) are 0.8 nM, 0.8 nM, and 10 nM respectively. Final PEP concentration is 100 μM. The Enzyme/PEP mixture is incubated with compounds for 30 minutes at RT before the assay is initiated with the addition of 2×ADP and KinaseGloPlus. Final concentration of ADP is 100 μM. […] For assays containing FBP, that reagent is added at 30 μM upon reaction initiation. Reactions are allowed to progress for 45 minutes at RT until luminescence is recorded by the BMG PHERAstar FS Multilabel Reader. The compound is tested in triplicate at concentrations ranging from 42.5 μM to 2.2 nM in 0.83% DMSO. AC50 measurements were obtained by the standard four parameter fit algorithm of ActivityBase XE Runner (max, min, slope and AC50). The AC50 value for a compound is the concentration (μM) at which the activity along the four parameter logistic curve fit is halfway between minimum and maximum activity.
(§3) As set forth in Table 2 below, AC50 values are defined as follows: ≤0.1 μM (+++); >0.1 μM and ≤1.0 μM (++); >1.0 μM and ≤40 μM (+); >40 μM (0).

PKR(G332S) = PKR(G332S) (Homo sapiens, UniProt P30613, G332S); assay: as above; assay type: biochemical; details: G332S variant; Luminescence Assay of Example 2
Chain of PKR(G332S) (P30613 whole entry G332S): as the sequence (P30613 whole entry) above, with G332S counted along it
Protocol: as §1, §2, §3

PKR(R510Q) = PKR(R510Q) (Homo sapiens, UniProt P30613, R510Q); assay: as above; assay type: biochemical; details: R510Q variant; Luminescence Assay of Example 2
Chain of PKR(R510Q) (P30613 whole entry R510Q): as the sequence (P30613 whole entry) above, with R510Q counted along it
Protocol: as §1, §2, §3

aromatase = target: T1, aromatase (Homo sapiens, UniProt P11511); assay: Aromatase inhibition; details: non-clinical testing
T1 sequence (P11511 1-503): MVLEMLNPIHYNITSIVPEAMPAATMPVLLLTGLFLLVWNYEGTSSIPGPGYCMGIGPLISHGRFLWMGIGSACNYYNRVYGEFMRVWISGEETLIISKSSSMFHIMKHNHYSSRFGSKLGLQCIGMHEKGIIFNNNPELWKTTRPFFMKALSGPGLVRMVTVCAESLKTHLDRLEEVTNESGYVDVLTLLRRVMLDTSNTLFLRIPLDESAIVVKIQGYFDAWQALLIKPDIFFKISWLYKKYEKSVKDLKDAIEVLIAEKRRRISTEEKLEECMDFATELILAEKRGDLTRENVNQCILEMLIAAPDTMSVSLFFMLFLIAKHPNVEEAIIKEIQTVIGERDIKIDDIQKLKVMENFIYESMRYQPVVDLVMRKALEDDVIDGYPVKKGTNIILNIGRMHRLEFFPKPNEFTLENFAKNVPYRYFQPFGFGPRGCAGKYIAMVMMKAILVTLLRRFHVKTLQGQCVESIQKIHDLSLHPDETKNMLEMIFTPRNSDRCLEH

[1] = tested on: H295R adreno-cortical carcinoma cell line; assay: Steroid modulation screen in vitro; assay type: cell-based; details: tested 200 to 0.0002 μM; only at the top concentration
Protocol: To assess potential effects on steroidogenesis, Compound 1 was screened for steroid modulation in vitro using the H295R adreno-cortical carcinoma cell line (at 200 to 0.0002 μM) and in an assay to monitor cell viability (MTT Kit). Compound 1 indicated steroid modulation potential (% over vehicle) only at 200 μM, the top concentration tested, with 100% cellular viability at concentrations≤20 μM (90% viability at 200 μM).

CYP2B6 = assay: CYP mRNA induction in cultured human hepatocytes; assay type: in vitro ADME; details: donors AIH, EUJ, HC5-40 individually
[2] = Phase 1: hematologic and hemolytic parameters in SCD patients; assay type: in vivo, human; details: single 700 mg dose, 24 h
Permeability Papp (A-B) = assay type: in vitro ADME; details: not told
CYP3A4 = assay: CYP mRNA induction in cultured human hepatocytes; assay type: in vitro ADME; details: donors, HCS-40 individually
[3] = tested on: estradiol and testosterone levels; assay: Circulating estradiol and testosterone in healthy subjects, 14 days; assay type: in vivo, human; details: up to 14 days, 100-300 mg BID, 400 mg QD
Protocol: Effects on circulating levels of estradiol and testosterone in male and female healthy subjects receiving Compound 1 or placebo for a treatment period of 14 days were evaluated. Compound 1 was administered twice daily (BID) at dose levels of 100 mg, 200 mg, and 300 mg, and once daily (QD) at a dose level of 400 mg. Each dosing cohort was comprised of 9 subjects treated with Compound 1 and 3 subjects treated with placebo. Testosterone and estradiol levels were assessed prior to dosing (baseline), and then on days 8, 14 and 17.

CYP2D6 = target: T2, CYP2D6 (Homo sapiens, UniProt P10635); assay: Single substrate DDI assay, reversible CYP inhibition in human liver microsomes; assay type: in vitro ADME
T2 construct: from tissue; host or cells: human liver microsomes
T2 sequence (P10635 whole entry): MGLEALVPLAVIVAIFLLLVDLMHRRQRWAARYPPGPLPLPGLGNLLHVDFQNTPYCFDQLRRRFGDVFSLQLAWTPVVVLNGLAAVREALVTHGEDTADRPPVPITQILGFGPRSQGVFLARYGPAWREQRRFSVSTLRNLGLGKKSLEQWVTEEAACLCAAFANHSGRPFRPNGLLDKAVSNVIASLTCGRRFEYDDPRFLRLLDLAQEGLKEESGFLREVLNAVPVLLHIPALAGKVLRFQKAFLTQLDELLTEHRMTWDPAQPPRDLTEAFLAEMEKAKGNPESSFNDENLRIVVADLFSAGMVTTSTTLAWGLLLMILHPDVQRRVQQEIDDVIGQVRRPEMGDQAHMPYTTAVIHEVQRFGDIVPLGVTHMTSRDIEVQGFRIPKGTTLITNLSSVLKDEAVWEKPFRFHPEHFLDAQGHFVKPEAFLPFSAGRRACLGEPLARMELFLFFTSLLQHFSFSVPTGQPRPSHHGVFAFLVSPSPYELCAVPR

Question: Which logD (Log D7.4) does the source give for `O=C([C@H](CO)c1ccccc1)N1CC2=C(C1)CN(S(=O)(=O)c1cnc3c(c1)OCCO3)C2` (single isomer, unassigned) [Compound 1] here?
Answer: 1.09

Question: And the AC50 (PKR(wt))?
Answer: < 1000 nM

Question: What about the AC50 (PKR(G332S)) of the same compound?
Answer: < 1000 nM

Question: What about the AC50 (PKR(R510Q)) of the same compound?
Answer: < 1000 nM

Question: What about the aromatase inhibition (aromatase) of the same compound?
Answer: absence of aromatase inhibition

Question: What about the “concentration at which steroid modulation potential (% over vehicle) was indicated” value [1] of the same compound?
Answer: 200 µM

Question: What about the “mRNA Fold Induction CYP2B6” value (CYP2B6; 0.033 μM) of the same compound?
Answer: 1.17 fold

Question: And the “mRNA Fold Induction CYP2B6” value (CYP2B6; 0.1 μM)?
Answer: 1.23 fold and 1.06 fold

Question: What about the “mRNA Fold Induction CYP2B6” value (CYP2B6; 0.33 μM) of the same compound?
Answer: 1.10 fold and 0.964 fold

Question: And the “mRNA Fold Induction CYP2B6” value (CYP2B6; 1 μM)?
Answer: 1.29 fold

Question: What about the “mRNA Fold Induction CYP2B6” value (CYP2B6; 3.3 μM) of the same compound?
Answer: 1.24 fold

Question: What about the “mRNA Fold Induction CYP2B6” value (CYP2B6; 10 μM) of the same compound?
Answer: 1.43 fold and 1.21 fold

Question: What about the fold induction at 1 µM (CYP2B6; human, 1 μM) of the same compound?
Answer: 1.07

Question: And the fold induction at 3.3 µM (CYP2B6; human, 3.3 μM)?
Answer: 1.25

Question: What about the fold induction at 0.033 µM (CYP2B6; human, primary cultured human hepatocytes, 0.033 μM) of the same compound?
Answer: 0.982

Question: And the fold induction at 0.1 µM (CYP2B6; human, primary cultured human hepatocytes, 0.1 μM)?
Answer: 1.01

Question: And the fold induction at 0.33 µM (CYP2B6; human, primary cultured human hepatocytes, 0.33 μM)?
Answer: 1

Question: And the fold induction at 1 µM (CYP2B6; human, primary cultured human hepatocytes, 1 μM)?
Answer: 1

Question: What about the fold induction at 3.3 µM (CYP2B6; human, primary cultured human hepatocytes, 3.3 μM) of the same compound?
Answer: 1.26

Question: What about the fold induction at 10 µM (CYP2B6; human, primary cultured human hepatocytes, 10 μM) of the same compound?
Answer: 1.7

Question: And the “mean Hb difference versus placebo” value [2]?
Answer: ~0.9 g/dL

Question: And the Papp A→B (Permeability Papp (A-B))?
Answer: 5.46 ×10⁻⁶ cm/s

Question: What about the “mRNA Fold Induction CYP3A4” value (CYP3A4; 0.033 μM) of the same compound?
Answer: 0.940 fold and 1.09 fold and 1.25 fold

Question: What about the “mRNA Fold Induction CYP3A4” value (CYP3A4; 0.1 μM) of the same compound?
Answer: 1.13 fold and 0.875 fold and 0.889 fold

Question: What about the “mRNA Fold Induction CYP3A4” value (CYP3A4; 0.33 μM) of the same compound?
Answer: 1.11 fold and 1.18 fold and 0.836 fold

Question: And the “mRNA Fold Induction CYP3A4” value (CYP3A4; 1 μM)?
Answer: 1.41 fold and 1.07 fold and 1.18 fold

Question: And the “mRNA Fold Induction CYP3A4” value (CYP3A4; 3.3 μM)?
Answer: 1.84 fold and 1.25 fold and 1.62 fold

Question: And the “mRNA Fold Induction CYP3A4” value (CYP3A4; 10 μM)?
Answer: 3.60 fold and 2.23 fold and 1.29 fold

Question: And the “effect on testosterone and estradiol levels” value [3]?
Answer: No effect; also recorded: no statistically significant changes

Question: What about the IC50 (CYP2D6) of the same compound?
Answer: > 30 µM
